According to the NIST ThermoML archive (doi:10.1016/j.fluid.2015.03.048):

Legend:
[1] = xn = mol fraction of the nth substance listed; conditions: 303.15 K, 100 kPa, Liquid; for viscosity: Capillary tube (Ostwald / Ubbelohde) method; for excess molar volume: Direct dilatometry; for speed of sound: Frequency=3 MHz, Sing-around technique in a fixed-path interferometer; for mass density: Pycnometric method
[2] = Liquid; for mass density: 101.33 kPa, Pycnometric method; for viscosity: 100 kPa, Capillary tube (Ostwald / Ubbelohde) method

Clc1ccccc1Cl [1,2-dichlorobenzene] + CC(=O)N(C)C
[1]
Conditions	excess molar volume [m3/mol]	mass density [kg/m3]	speed of sound [m/s]	viscosity [mPa·s]
x2 = 0.0664	–	1275.7	1263	–
x2 = 0.0805	-3.6e-08	–	–	1.294
x2 = 0.1017	–	1263.13	1276	–
x2 = 0.1224	-5e-08	–	–	1.29
x2 = 0.1344	–	1251.49	1284	–
x2 = 0.1605	-6e-08	–	–	1.283
x2 = 0.1841	–	1233.77	1298	–
x2 = 0.2175	-7.5e-08	–	–	1.277
x2 = 0.2229	–	1219.92	1307	–
x2 = 0.2611	-8.4e-08	–	–	1.276
x2 = 0.2821	–	1198.76	1319	–
x2 = 0.3261	-9.1e-08	–	–	1.261
x2 = 0.4095	–	1152.99	1344	–
x2 = 0.4319	-9.2e-08	–	–	1.253
x2 = 0.4585	–	1135.37	1353	–
x2 = 0.4607	-8.8e-08	–	–	1.24
x2 = 0.5105	-8.1e-08	–	–	1.232
x2 = 0.5742	–	1093.68	1377	–
x2 = 0.6242	-5.5e-08	–	–	1.225
x2 = 0.6565	–	1064.03	1393	–
x2 = 0.7019	-3.4e-08	–	–	1.218
x2 = 0.7168	–	1042.36	1402	–
x2 = 0.7571	-1.8e-08	–	–	1.211
x2 = 0.7764	–	1020.96	1413	–
x2 = 0.8105	-5e-09	–	–	1.201
x2 = 0.822	–	1004.63	1419	–
x2 = 0.8505	2e-09	–	–	1.112
x2 = 0.9177	–	970.54	1435	–
x2 = 0.9321	7e-09	–	–	0.908

Cc1cccc(Cl)c1 [3-chlorotoluene]
[2]
Conditions	mass density [kg/m3]	viscosity [mPa·s]
293.15 K	1072.15	–
303.15 K	–	0.782

Clc1ccc(Cl)c(Cl)c1 [1,2,4-trichlorobenzene]
[2], 303.15 K
Conditions	mass density [kg/m3]	viscosity [mPa·s]
–	1442.12	1.611
